Literature values as cited in article PMC7536072, “Molecular and functional characterization of somatostatin-type signalling in a deuterostome invertebrate” (Open Biology, 2020).
Bridges are numbered along the chain shown (N, C = ends). Where no end group is shown, it is not given here.

Key:
growth hormone release = conditions: ref [1]; cited from earlier work
Text: (§1) Subsequently, an N-terminally extended isoform (SS28) was identified, with both SS14 and SS28 being derived from the same precursor protein [5]. Five G-protein-coupled receptors, SSTR1, SSTR2, SSTR3, SSTR4 and SSTR5, mediate effect ...

insulin release = conditions: ref [2]; cited from earlier work
Text: as §1

mammals = conditions: intracerebroventricular, cited from earlier work
Text: as §1

SS: tetradecapeptide with a disulfide bridge linking cysteine residues at positions 3 and 14 (SS14) (AGCKNFFWKTFTSC; disulfide 3-14; UniProt P61278 103-116, looked up)
effect on growth hormone release (growth hormone release): inhibits growth hormone release | effect on insulin release (insulin release): inhibits insulin release | effect on food intake and drinking (mammals; ref [12],[13]): stimulation of food intake and drinking | anxiolytic effect (mammals; ref [14]): anxiolysis
